Test results from patent US9394544B2, “Ameliorating oxidative stress in neurodegenerative disease via Nox1 targeting” (University of Central Florida Research Foundation, Inc., priority 2013, dated 2016).

How the values were obtained:
rat SN = assay: Immunohistochemistry of SN sections, PQ rat model; type: in vivo
Experimental: The experiments were performed on rats, in accordance with the National Institutes for Health Guide for the Care and Use of Laboratory Animals. All procedures were approved by the local Animal Care and Use Committee. Male Wistar rats (8-10 weeks; Charles River) were maintained in a temperature/humidity-controlled environment under a 12 h light/dark cycle with ad libitum access to food and water. As depicted in FIG. 13A, each animal received four intraperitoneal injections, separated by 1 d, of either vehicle (saline) or PQ (10 mg/kg body weight; b.w.), according to a previously published dose (Manning-Bog et al., 2002; Harraz et al., 2008; Cristovao et al., 2009). All animals were weighed at day 1 and 12. In the studies using the paradigm depicted in FIG. 13A, 4 weeks before starting PQ intraperitoneal injection, animals were stereotaxically injected with various viral constructs at the right SN using the following coordinates: mediolateral, +2.0; anteroposterior, −5.3; dorsoventral, −6.8. Animals were organized into four groups: vector+vehicle: stereotaxically injected with adeno-associated virus (AAV) particles containing a green fluorescent protein (GFP) vector (vector) and then intraperitoneally injected with saline (vehicle) (n=10); vector+PQ: stereotaxically injected with vector and then intraperitoneally injected with PQ (n=10); shNox1+PQ: stereotaxically injected with AAV particles harboring Nox1 shRNA and then intraperitoneally injected with PQ (n=10); shNox1+vehicle: stereotaxically injected with Nox1 shRNA and then intraperitoneally injected with vehicle (n=8). AAV containing GFP vector was used as a negative control. Five days after the last PQ intraperitoneal injection, animals were killed. For Western blot analysis, brains were collected and total protein lysates from SN were prepared. For immunohistochemical analysis, animals were intracardially perfused before collecting the brains.
Following perfusion with saline and 4% PFA in PBS, brains were removed, and forebrain and midbrain blocks were immersion fixed in 4% PFA and cryoprotected in sucrose. Serial coronal sections (40 μm) were cut on a cryostat, collected in cryopreservative solution, and stored at −20° C. For immunolabeling studies, sections were incubated at room temperature with blocking solution for 1 h (5% FBS and 0.3% Triton X-100 in PBS, pH 7.5) and then with primary antibodies overnight. Finally, sections were incubated with secondary antibodies in blocking solution at room temperature for 1 h. The primary antibodies used were mouse anti-TH (1:10,000), rabbit anti-Nox1 (1:500), goat anti-4-HNE (1:700), mouse anti-ubiquitin (1:250), rabbit anti-α-synuclein (1:150), and rabbit anti-A11 oligomers (2.5 μg/ml). The secondary antibodies were biotinylated anti-rabbit IgG, anti-goat IgG, or anti-rat IgG (1:200). The staining procedure was performed as indicated by the manufacturer of the Vectastain ABC kit and the reaction product visualized using 3,3′-diaminobenzidine (DAB) reagent in TBS containing 0.02% H2O2. The numbers of TH-immunoreactive cells in the SN were counted using an optical fractionator. Analysis was performed using a system consisting of a Nikon Eclipse E600 microscope (Morrell Instruments) equipped with a computer-controlled LEP BioPoint motorized stage (Ludl Electronic Products), a DEI-750 video camera (Meyer Instruments), a Dell Dimension 4300 computer (Dell), and the Stereo Investigator (v. 4.35) software program (Microbrightfield).
Immunocytochemistry for proteinase K (PK)-resistant α-synuclein was performed based on a methodology reported previously (Neumann et al., 2002), with some modifications. Briefly, fixed cells were permeabilized with 0.1% Tween 20 and then digested for 30 min at 37° C. with PK (10 μg/ml). PK was inactivated with 3 M guanidine thiocyanate in 10 mM Tris-HCl solution for 10 min. Between each step, cells were washed gently three times with PBS. […]

Rac1 = Rac1 activation assay (active GTPase pull-down) in N27 cells; type: cell-based, rat; conditions: 6 h post administration
Source text: The NADPH oxidase is a multi-subunit enzyme that consists of the catalytic subunits (Nox isoforms) together with the regulatory subunits including p22phox, p47phox, p40phox, p67phox, Nox organizer 1 (Noxo1), Nox activator 1 (Noxa1), and small GTPase Rac1. In order to test whether dopaminergic (DA) cells are equipped with the NOX components, N27, a well-established rat DA cell line was examined (Prasad et al. 1994). The mRNAs encoding each Nox isoform and regulatory subunits were detected using RT-PCR. Since transcriptional induction of Nox1 and Nox4 has already been reported in several tissues under a variety of stimuli, transcripts were determined in both nontreated and 6-hydroxydopamine (6-OHDA), a DA neurodegenerative compound, treated DA cells. ROS generation as induced by 6-OHDA (100 μM) and subsequent cell death was observed. All Nox isoforms (Nox1, Nox2, Nox4, Duox1 and Duox2) except Nox3 and Nox5 were detected (FIG. 1A). […] Mitochondria, which have long been considered as a major source of ROS, play a key role in Nox1-mediated superoxide generation (Desouki et al. 2005). […] Cytoplasmic regulatory subunits including p47phox, Noxa1, and Noxo1 were constitutively expressed in DA cells as well (FIG. 1A). Noxa1 and Noxo1 are homologues of p67phox and p47phox, respectively. […] GTP-bound active Rac1 was measured in DA cells treated with 6-OHDA for various duration from 1 h to 6 h. […]

Compound | immunoreactivity of A11 oligomers in the SN (rat SN; PQ, PQ with Nox1 knocked down) | α-Synuclein immunoreactivity in the SN (rat SN; rats, PQ vs vehicle) | 4-HNE immunoreactivity (lipid peroxidation) in the SN (rat SN; rats, PQ vs vehicle, Nox1 shRNA+PQ vs PQ) | Nox1 immunoreactivity in the SN (rat SN; rats, PQ vs vehicle, Nox1 shRNA+PQ vs vector+PQ) | PK-resistant α-synuclein immunoreactivity in the rat SN (rat SN; vector+PQ vs vector+vehicle, Nox1 shRNA+PQ) | ubiquitin immunoreactivity in the rat SN (rat SN; vector+PQ, Nox1 shRNA+PQ) | GTP-bound active Rac1 (Rac1)
C[n+]1ccc(-c2cc[n+](C)cc2)cc1 [PQ, paraquat] | significant increase | increased | increase | upregulation | increase | significant increase | –
NCCc1cc(O)c(O)cc1O [6-OHDA, 6-hydroxydopamine] | – | – | – | – | – | – | Rac1 activation was observed
